# ChEMBL document CHEMBL1201862, “PubChem BioAssay data set” (2004)
# Active and inactive are the calls of the source.
# What was measured:
# [1] = system: HeLa; test: HeLa cell cytotoxicity, dose response, cytotoxicity control for MITF activator project, CellTiter-Glo luminescence, cherry-pick samples (AID 540259); type: functional, cell-based; conditions: Homo sapiens
# [2] = target: T1, Corticotropin-releasing factor receptor 2/Corticotropin-releasing factor-binding protein (Homo sapiens, UniProt P24387+Q13324); test: Dose Response confirmation of uHTS hits for small molecule antagonists of the CRF-binding protein and CRF-R2 receptor complex.; type: functional; conditions: read-out: IC50_Mean
# T1 sequence (Q13324 whole entry): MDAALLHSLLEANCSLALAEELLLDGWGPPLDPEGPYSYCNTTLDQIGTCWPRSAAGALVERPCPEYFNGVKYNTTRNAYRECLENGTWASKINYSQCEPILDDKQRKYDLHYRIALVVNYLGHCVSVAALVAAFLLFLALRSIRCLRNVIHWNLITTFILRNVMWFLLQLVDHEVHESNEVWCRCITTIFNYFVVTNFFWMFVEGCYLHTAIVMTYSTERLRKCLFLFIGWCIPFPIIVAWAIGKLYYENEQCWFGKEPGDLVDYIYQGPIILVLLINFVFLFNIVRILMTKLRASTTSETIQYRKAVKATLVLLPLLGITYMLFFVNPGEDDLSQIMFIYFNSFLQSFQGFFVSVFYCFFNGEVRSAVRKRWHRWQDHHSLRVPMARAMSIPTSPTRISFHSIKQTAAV
# T1 sequence (P24387 whole entry): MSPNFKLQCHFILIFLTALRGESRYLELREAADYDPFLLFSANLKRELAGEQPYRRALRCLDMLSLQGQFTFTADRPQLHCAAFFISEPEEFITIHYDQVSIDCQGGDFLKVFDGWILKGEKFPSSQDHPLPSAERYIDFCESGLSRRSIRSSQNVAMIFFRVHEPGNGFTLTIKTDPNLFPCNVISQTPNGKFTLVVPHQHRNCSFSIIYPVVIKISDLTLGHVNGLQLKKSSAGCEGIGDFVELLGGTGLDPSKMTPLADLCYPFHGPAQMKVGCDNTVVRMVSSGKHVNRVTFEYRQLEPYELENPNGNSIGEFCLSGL
# [3] = target: T1, Corticotropin-releasing factor receptor 2/Corticotropin-releasing factor-binding protein; test: activators of CRF receptor 2 with binding protein – uHTS hits, confirmation (AID 602473); type: functional; conditions: read-out: EC50_Mean
# [4] = target: Induced myeloid leukemia cell differentiation protein Mcl-1 (Homo sapiens, UniProt Q07820); type: functional
# Chain of Induced myeloid leukemia cell differentiation protein Mcl-1 (Q07820 whole entry): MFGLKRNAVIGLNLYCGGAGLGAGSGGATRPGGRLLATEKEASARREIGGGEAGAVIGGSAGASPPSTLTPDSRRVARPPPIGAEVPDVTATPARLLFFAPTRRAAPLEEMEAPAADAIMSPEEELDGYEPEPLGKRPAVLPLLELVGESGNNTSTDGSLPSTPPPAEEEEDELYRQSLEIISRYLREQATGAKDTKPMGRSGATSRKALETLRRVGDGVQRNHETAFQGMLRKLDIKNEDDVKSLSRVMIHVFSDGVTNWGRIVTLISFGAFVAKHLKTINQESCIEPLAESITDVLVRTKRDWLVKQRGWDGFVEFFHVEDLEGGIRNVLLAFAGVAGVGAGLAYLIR
# [5] = target: FAD-linked sulfhydryl oxidase ALR (Homo sapiens, UniProt P55789); test: inhibitors of human ALR sulfhydryl oxidase, dose response, biochemical, H2O2 detection, luminescence, cherry-pick (AID 493248)
# Chain of FAD-linked sulfhydryl oxidase ALR (P55789 whole entry): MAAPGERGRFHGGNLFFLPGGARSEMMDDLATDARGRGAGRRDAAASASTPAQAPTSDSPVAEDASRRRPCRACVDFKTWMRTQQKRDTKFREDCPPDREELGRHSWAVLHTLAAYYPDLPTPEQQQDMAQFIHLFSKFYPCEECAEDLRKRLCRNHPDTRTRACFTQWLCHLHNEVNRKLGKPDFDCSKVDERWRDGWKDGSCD
# [6] = target: Dual specificity tyrosine-phosphorylation-regulated kinase 1A (Rattus norvegicus, UniProt Q63470); type: biochemical, Homo sapiens
# [7] = target: Histone-lysine N-methyltransferase NSD2 (Homo sapiens, UniProt O96028); type: biochemical
# Chain of Histone-lysine N-methyltransferase NSD2 (O96028 whole entry): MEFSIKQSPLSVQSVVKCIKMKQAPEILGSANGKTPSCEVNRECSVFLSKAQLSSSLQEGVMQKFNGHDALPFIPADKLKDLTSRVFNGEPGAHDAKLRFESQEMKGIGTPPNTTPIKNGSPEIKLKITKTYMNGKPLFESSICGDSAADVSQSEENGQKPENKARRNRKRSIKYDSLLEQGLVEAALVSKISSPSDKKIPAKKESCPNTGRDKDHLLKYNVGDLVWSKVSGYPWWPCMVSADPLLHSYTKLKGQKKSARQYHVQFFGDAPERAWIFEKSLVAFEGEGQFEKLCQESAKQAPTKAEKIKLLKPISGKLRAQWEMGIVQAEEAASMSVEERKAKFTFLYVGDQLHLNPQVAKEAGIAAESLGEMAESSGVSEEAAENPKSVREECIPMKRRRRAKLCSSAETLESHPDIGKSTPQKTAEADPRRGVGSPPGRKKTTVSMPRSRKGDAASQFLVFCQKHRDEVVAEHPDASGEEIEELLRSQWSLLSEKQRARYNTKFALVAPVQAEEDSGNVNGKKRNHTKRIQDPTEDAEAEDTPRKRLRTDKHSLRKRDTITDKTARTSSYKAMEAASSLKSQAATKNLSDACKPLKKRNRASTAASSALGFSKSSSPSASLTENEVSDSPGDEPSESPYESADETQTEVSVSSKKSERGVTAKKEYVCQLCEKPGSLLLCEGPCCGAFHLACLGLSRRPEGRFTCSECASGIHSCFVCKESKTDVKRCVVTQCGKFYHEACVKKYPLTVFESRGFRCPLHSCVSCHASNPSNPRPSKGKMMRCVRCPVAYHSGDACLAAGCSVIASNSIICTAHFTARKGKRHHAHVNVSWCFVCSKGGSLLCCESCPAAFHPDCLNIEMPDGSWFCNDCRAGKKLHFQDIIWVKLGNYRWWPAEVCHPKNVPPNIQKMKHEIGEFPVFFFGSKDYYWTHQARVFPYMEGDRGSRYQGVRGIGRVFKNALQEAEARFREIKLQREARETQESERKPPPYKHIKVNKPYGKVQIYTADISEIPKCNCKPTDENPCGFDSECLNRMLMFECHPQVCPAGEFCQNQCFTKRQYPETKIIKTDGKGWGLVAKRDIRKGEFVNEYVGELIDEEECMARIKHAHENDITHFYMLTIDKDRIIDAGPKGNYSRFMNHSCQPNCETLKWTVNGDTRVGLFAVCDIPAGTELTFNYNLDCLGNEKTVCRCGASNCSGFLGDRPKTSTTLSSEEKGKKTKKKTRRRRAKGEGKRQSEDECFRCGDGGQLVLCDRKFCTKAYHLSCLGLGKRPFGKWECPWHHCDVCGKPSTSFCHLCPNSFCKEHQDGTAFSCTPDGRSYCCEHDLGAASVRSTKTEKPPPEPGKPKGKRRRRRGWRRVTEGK
# [8] = system: HEK293; test: PMA/Ionomycin induced NF-kB luciferase assay in 293- NF-kB-Luc stable cells. [Related pubchem assays: 1299, 1270, 1295, 1375, 1287, 1281, 1293, 1291, 1289, 1280, 465, 1364, 1282, 1372, 1365, 1370, 1367, 1366, 1269, 1373, 1292, 1290, 1302, 1371, 1283, 1271, 1294, 1374, 1368, 1369 ]; type: functional, cell-based; conditions: Homo sapiens
# [9] = target: Luciferin 4-monooxygenase (Photinus pyralis, UniProt P08659); test: In vitro luciferase assay using purified luciferase. [Related pubchem assays: 1299, 1270, 1295, 1375, 1287, 1281, 1293, 1291, 1289, 1280, 465, 1364, 1282, 1372, 1365, 1370, 1367, 1366, 1266, 1373, 1292, 1290, 1302, 1371, 1283, 1271, 1294, 1374, 1368, 1369 ]
# Chain of Luciferin 4-monooxygenase (P08659 whole entry): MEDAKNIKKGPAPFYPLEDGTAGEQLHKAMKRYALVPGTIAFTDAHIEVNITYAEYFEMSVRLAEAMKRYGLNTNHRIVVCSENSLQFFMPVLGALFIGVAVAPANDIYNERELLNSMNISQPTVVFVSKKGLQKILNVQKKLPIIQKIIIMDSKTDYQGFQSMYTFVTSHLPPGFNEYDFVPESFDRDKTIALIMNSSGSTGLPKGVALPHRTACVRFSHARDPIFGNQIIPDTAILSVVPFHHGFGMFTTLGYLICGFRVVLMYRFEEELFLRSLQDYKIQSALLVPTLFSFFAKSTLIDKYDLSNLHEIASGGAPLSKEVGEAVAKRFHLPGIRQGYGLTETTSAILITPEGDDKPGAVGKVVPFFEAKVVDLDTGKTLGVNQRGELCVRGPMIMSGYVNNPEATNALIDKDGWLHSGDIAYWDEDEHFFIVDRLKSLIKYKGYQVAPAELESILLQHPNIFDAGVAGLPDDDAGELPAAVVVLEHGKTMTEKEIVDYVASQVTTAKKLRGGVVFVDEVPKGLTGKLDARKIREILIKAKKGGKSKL
# [10] = system: HEK293; test: Cytotoxicity assay in HEK293 cells. [Related pubchem assays (depositor defined):AID1266, AID1269, AID1270, AID1271, AID1280, AID1281, AID1282, AID1283, AID1287, AID1289, AID1290, AID1291, AID1292, AID1293, AID1294, AID1295, AID1299, AID1302, AID1364, AID1365, AID1366, AID1367, AID1369, AID1370, AID1371, AID1372, AID1373, AID1374, AID1375, AID1384 …; type: functional, cell-based; conditions: Homo sapiens
# [11] = cytotoxicity in HEK-293T cells, dose response, cytotoxicity control for BCR NF-kB inhibitor project, luminescence, B-cell screen hits (AID 489021); type: functional, cell-based;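 further: HEK-293T cells carrying an NF-kB luciferase reporter; cells exposed to compound for about 14 hours before viability readout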
# [12] = system: HEK293; test: inhibitors of LMP1-driven NF-kB reporter, dose response, cell-based, HEK293, luciferase, cherry-pick (AID 588343); type: functional; conditions: Homo sapiens
# [13] = system: HEK293; test: cytotoxicity in HEK293T NF-kB-Luc cells, SAR follow-up, cytotoxicity control for NF-kB activator project, cell-based, resazurin fluorescence (AID 493251); type: functional
# [14] = system: Jurkat; test: SAR Analysis of small molecule inhibitors of T-cell specific antigen receptor-induced NF-kB activation in a Jurkat cell line using a luminescence assay - Set 2. [Related pubchem assays (depositor defined):AID435003, AID435012, AID465]; type: functional, cell-based; conditions: Homo sapiens
# [15] = system: HEK293; test: SAR Analysis of small molecule inhibitors of T-cell specific antigen receptor-induced NF-kB activation in a HEK-293T cell line using a luminescence assay - Set 2. [Related pubchem assays (depositor defined):AID435003, AID435012, AID489026]; type: functional, cell-based; conditions: Homo sapiens
# [16] = NIH-3T3 fibroblast cytotoxicity, dose response, cytotoxicity control, cell-based, fluorescence, Alamar Blue, secondary assay (AID 2327); type: functional;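 further: NIH-3T3 mouse fibroblasts cultured with fluconazole at 8 µg/mL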
# [17] = C. albicans growth with fluconazole, confirmation, fluorescence, retest (AID 2467); type: functional, cell-based
# [18] = target: Serine/threonine-protein phosphatase (Candida dubliniensis (strain CD36 / CBS 7987 / NCPF 3949 / NRRLY-17841) (Yeast), UniProt B9W6M3); test: calcineurin pathway inhibitors in yeast reporter, dose response, S. cerevisiae, CDRE-lacZ, luminescence, secondary (AID 2388); type: functional, cell-based;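 further: yeast reporter cells carrying a calcineurin-responsive lacZ construct stimulated with calcium chloride; luminescent beta-galactosidase reporter signal in whole cells rather than isolated phosphatase activity; potency for inhibition where a drop in reporter signal means calcineurin blockade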
# Chain of Serine/threonine-protein phosphatase (B9W6M3 whole entry): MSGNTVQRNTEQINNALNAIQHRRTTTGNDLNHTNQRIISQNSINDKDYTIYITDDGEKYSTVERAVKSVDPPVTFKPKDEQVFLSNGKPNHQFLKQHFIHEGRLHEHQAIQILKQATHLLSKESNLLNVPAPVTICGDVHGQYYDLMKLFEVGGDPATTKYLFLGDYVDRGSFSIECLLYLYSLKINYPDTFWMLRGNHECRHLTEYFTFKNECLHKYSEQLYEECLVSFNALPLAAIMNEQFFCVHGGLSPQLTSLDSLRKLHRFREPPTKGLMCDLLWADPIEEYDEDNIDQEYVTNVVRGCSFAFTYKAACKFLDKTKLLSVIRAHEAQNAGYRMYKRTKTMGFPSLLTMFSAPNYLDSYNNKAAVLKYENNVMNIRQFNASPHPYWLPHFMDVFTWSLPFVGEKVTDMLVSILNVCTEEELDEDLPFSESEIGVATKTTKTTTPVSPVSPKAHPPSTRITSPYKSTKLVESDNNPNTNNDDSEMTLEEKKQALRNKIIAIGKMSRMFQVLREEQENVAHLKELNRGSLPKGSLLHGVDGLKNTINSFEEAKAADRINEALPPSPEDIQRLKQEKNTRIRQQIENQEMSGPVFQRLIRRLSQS
# [19] = target: ATP-dependent molecular chaperone HSP82 (Candida albicans (strain WO-1) (Yeast), UniProt C4YTQ8); test: loss of DOC-induced GRE-beta-galactosidase reporter signal, dose response, Hsp90 inhibitor project, S. cerevisiae, luminescence (AID 2400); type: functional, cell-based;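 further: beta-galactosidase luminescence from glucocorticoid response element reporter as proxy for Hsp90 function; inhibitor potency where signal loss means Hsp90 inhibition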
# Chain of ATP-dependent molecular chaperone HSP82 (C4YTQ8 whole entry): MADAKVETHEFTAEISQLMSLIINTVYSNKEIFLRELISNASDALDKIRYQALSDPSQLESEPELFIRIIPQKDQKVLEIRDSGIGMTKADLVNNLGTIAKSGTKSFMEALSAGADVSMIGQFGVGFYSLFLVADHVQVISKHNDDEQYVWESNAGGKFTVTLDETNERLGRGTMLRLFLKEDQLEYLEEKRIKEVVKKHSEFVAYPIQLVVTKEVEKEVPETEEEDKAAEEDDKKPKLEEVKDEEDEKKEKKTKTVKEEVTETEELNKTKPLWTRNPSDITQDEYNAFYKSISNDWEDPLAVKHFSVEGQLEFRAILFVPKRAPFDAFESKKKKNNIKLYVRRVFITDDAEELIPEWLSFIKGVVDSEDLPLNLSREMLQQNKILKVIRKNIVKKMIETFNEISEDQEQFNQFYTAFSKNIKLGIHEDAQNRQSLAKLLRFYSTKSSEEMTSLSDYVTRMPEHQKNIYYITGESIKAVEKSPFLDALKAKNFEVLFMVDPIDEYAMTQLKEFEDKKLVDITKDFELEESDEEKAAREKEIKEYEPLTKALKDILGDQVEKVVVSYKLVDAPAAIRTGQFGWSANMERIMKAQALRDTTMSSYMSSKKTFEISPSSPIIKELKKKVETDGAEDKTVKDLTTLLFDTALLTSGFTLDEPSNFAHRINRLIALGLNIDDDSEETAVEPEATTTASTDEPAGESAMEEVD
# [20] = inhibitors of firefly luciferase expression or activity, dose response, H4 neuroglioma cells, luminescence (AID 1990); type: functional, cell-based
# [21] = luciferase reporter signal reduction – luminescence, H4-C neuroglioblastoma cells, dose response (AID 2458); type: functional, cell-based;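 further: H4 neuroglioblastoma cells stably carrying a luciferase reporter gene fusion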
# [22] = cells; type: functional, cell-based
# [23] = inhibitors of SNCA 5'UTR-driven reporter translation, confirmation, H4 neuroglioma cells, luminescence (AID 1988); type: functional, cell-based
# [24] = inhibitors of SNCA 5'UTR-driven translation, confirmation, luminescence, H4 neuroglioblastoma cells, dose confirmation (AID 2454); type: functional, cell-based;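 further: H4 neuroglioblastoma cells carrying an alpha-synuclein 5'UTR luciferase reporter; potency for inhibition of the luciferase signal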
# [25] = target: Exodeoxyribonuclease V (Escherichia coli (strain K12), UniProt P04993+P07648+P08394); test: E. coli RecBCD inhibitors, dose response, counter-screen for AddAB inhibitor project, absorbance, V66 E. coli, mutant T4 phage (AID 492957); type: functional, cell-based, Escherichia coli str. K-12 substr. MG1655
# [26] = target: Intestinal-type alkaline phosphatase (Mus musculus, UniProt P24822); test: PubChem AID 488874; type: functional
# Chain of Intestinal-type alkaline phosphatase (Mus musculus, UniProt P24822) (P24822 whole entry): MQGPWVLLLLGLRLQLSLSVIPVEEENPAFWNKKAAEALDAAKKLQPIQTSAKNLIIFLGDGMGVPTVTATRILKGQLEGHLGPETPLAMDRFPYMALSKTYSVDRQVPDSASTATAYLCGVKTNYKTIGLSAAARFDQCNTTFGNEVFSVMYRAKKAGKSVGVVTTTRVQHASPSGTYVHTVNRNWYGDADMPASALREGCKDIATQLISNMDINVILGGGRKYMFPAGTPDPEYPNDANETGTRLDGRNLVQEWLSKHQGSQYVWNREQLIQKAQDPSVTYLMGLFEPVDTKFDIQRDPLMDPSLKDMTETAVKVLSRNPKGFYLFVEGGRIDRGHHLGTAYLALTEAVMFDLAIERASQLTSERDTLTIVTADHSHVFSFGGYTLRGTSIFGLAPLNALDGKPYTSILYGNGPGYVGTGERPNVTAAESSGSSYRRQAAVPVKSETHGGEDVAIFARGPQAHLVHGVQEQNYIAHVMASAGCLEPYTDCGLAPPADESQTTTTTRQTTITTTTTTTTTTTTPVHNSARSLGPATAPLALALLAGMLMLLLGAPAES
# [27] = target: T2, Intestinal-type alkaline phosphatase (Homo sapiens, UniProt P09923); test: human intestinal alkaline phosphatase activators, dose response, biochemical, luminescence, uHTS hits (AID 463120); type: functional
# T2 sequence (P09923 whole entry): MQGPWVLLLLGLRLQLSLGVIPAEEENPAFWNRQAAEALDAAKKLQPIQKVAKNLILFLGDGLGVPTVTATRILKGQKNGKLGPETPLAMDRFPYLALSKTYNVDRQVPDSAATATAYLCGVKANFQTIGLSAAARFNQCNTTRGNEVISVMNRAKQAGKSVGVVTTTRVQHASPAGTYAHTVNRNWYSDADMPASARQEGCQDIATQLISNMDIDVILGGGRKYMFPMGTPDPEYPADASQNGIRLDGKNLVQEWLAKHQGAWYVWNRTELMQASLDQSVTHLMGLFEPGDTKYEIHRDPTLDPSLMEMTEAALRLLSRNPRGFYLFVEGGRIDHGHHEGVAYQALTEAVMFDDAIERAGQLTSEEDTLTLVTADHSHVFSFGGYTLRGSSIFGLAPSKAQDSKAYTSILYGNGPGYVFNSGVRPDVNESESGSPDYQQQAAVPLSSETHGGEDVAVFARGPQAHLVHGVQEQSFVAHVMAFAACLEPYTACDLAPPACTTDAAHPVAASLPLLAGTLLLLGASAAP
# [28] = target: T2, Intestinal-type alkaline phosphatase; test: human IAP activators, dose response, biochemical, luminescent, uHTS hits, set 2 (AID 488817); type: functional;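 further: potency of activators that raise enzyme activity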
# [29] = target: T3, Alkaline phosphatase, tissue-nonspecific isozyme (Homo sapiens, UniProt P05186); test: TNAP enzyme activators, dose response, selectivity assay for human IAP activator project, biochemical, TNAP isozyme, human IAP uHTS hits (AID 488886); type: functional;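 further: potency of compounds raising TNAP activity as a selectivity check on IAP activators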
# T3 sequence (P05186 whole entry): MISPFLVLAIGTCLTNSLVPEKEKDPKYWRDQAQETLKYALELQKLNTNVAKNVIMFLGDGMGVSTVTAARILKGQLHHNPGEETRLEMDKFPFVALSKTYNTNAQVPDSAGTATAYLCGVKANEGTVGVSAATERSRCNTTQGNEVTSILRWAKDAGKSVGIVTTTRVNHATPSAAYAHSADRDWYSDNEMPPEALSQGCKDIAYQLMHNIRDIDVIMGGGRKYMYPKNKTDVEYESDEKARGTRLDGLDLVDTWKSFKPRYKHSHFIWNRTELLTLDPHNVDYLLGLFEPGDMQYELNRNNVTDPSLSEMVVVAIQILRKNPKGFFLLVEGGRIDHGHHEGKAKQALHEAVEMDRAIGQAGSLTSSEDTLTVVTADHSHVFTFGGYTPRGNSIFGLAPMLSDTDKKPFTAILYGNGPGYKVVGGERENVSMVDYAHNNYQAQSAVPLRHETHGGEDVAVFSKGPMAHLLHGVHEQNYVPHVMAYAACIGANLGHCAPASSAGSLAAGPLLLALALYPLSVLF
# [30] = Counterscreen for AddAB inhibitors: absorbance-based bacterial cell-based high throughput dose response assay for inhibitors of bacterial viability. [Related pubchem assays (depositor defined):AID435030, AID449728, AID449731, AID488942, AID488955, AID488956]; type: functional
# [31] = system: INS1; test: beta cell apoptosis inhibitors, cytokine rescue, dose response, luminescence, retest (AID 449756); type: functional, cell-based; conditions: Rattus norvegicus;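 further: cell death triggered by IL-1 beta plus TNF-alpha plus IFN-gamma mixture; protective hits raise ATP signal compared with cytokine alone wells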
compound,measurement,setting,value
COc1ccc2c(c1OC)C(=O)N1c3ccccc3COC21 (stereo unspecified),AC50,[1],> 350 µM (inactive)
same,IC50,[2],> 47.1 µM (inactive)
same,EC50,[3],> 53 µM (inactive)
COc1ccc(NC(=O)c2ccc3[nH]c(C)c(C)c3c2)cc1,AC50,[1],47.9 µM (active)
O=C1NC(=O)/C(=C\c2ccc(O)cc2O)S1,IC50,[4],2.2 µM (active)
same,AC50,[5],1.78 µM (active)
same,AC50,[6],0.56 µM (active)
same,AC50,[7],2.07 µM (active)
CCOc1ccc(-c2nc(CSCC(=O)NCc3ccco3)c(C)o2)cc1,EC50,[8],15.4 µM (not active)
same,EC50,[9],> 8 µM (not active)
same,EC50,[10],20.3 µM (inactive)
same,IC50,[11],> 80 µM (inactive)
same,AC50,[12],32 µM (active)
same,IC50,"[13]; Homo sapiens, HEK293",54.4 µM (inactive)
same,IC50,[13]; hek293,53.1 µM (inactive)
same,IC50,[14],> 79 µM (inactive)
same,IC50,[15],25.2 µM (inactive)
CCN(CC)C(=O)CCc1nc(-c2ccc(C(C)(C)C)cc2)no1,IC50,"[13]; Homo sapiens, HEK293",54.7 µM (inactive)
same,IC50,[13]; hek293,51.5 µM (inactive)
same,IC50,[14],47.8 µM (inactive)
same,IC50,[15],19.7 µM (active)
CCCCCCc1c(C)nc(-n2[nH]c(C)c(CCO)c2=O)[nH]c1=O,EC50,[16],> 160 µM (inactive)
same,EC50,[17],0.635 µM (active)
same,EC50,[18],> 180 µM (inactive)
same,EC50,[19],> 160 µM (inactive)
O=c1c2ccccc2nc(N/N=C/c2c(O)ccc3ccccc23)n1O,EC50,[16],> 150 µM (inactive)
same,EC50,[20],< 0.1 µM (active)
same,EC50,[21],0.601 µM (active)
same,EC50,[22],1.26 µM (active)
same,EC50,[23],< 0.1 µM (active)
same,EC50,[17],0.212 µM (active)
same,EC50,[18],> 180 µM (inactive)
same,EC50,[24],> 12 µM (inconclusive)
same,IC50,[25],> 119 µM (inactive)
same,IC50,[26],75.3 µM (active)
same,EC50,[27],13.6 µM (active)
same,EC50,[28],31 µM (active)
same,EC50,[29],> 100 µM (inactive)
same,IC50,[30],> 119 µM (inactive)
same,AC50,[31],1.23 µM (active)
same,EC50,[19],18.1 µM (active)
